The values that follow are results of earlier work, collected in patent US20250234859A1, “AQUEOUS SUSPENSION AGROCHEMICAL COMPOSITION, DISEASE CONTROL METHOD, AND USEFUL PLANT SEEDS” (KUMIAI CHEMICAL INDUSTRY CO., LTD., priority 2021, published 2025).

Structures are written as SMILES.

This series has as its system rice blast, glume blotch, cucumber downy mildew, and cucumber anthracnose. Particulars: diseases such as rice blast, Patent Document 3.

Take `O=S1(=O)N=C(OCc2snc(Cl)c2Cl)c2ccccc21` [dichlobentiazox, 3-(3,4-dichloroisothiazol-5-ylmethoxy)-1,2-benzothiazole-1,1-dioxide]: the “effect on plant diseases” value is “remarkable effect”.
